Measurements from PMC7725824, “Fused isoselenazolium salts suppress breast cancer cell growth by dramatic increase in pyruvate-dependent mitochondrial ROS production” (Scientific Reports, 2020).

Test system: CL/DOPC liposomes (cardiolipin)
Test: 1H NMR interaction study with CL-containing liposomes
Assay type: binding
Settings: 0.4 mM 6, 1.2 mM DOPC, 0.4 mM CL, 25 °C
Method: Cardiolipin (CL) liposomes for NMR analysis were prepared by the thin-film method followed by sonication and extrusion. […] The obtained lipid thin film was dried in vacuo overnight. Then, the dry lipid film was rehydrated in D18 HEPES buffer (20 mM, pH 7.4, 10% D2O) and gently vortexed, and the samples were sonicated for 30 min in a bath-type sonicator. The obtained sample of liposomes was extruded 21 times through a 100-nm pore polycarbonate filter (Nucleopore Corp., CA). Similarly, liposomes from DOPC only were prepared.
To study the interactions of compound 6 with CL and DOPC liposomes, a stock solution of 6 (2 mM) in D18 HEPES buffer (20 mM, pH 7.4, 10% D2O) was added to CL/DOPC or DOPC liposome dispersions to reach 400:1200:400 µM CL/DOPC/6 solution or 1600:400 µM DOPC/6 solution followed by gentle vortexing for 30 s.
NMR spectra were acquired on a 600‐MHz Bruker Avance NEO spectrometer equipped with a 5 mm QCI-F quadruple resonance pulsed‐field‐gradient cryoprobe. The temperature was calibrated against methanol and set to 25 °C. Chemical shifts were referenced to the water resonance at 4.77 ppm with respect to 4,4-dimethyl-4-silapentane-1-sulfonic acid (DSS). The samples contained […] 6 in 90% H2O and 10% D2O with and without DOPC or CL/DOPC liposomes. The NMR data were processed and analyzed using MestReNova software.

For `OC1(c2[se][n+]3ccsc3c2Br)CCCCC1` [Compound 6, 3-bromo-2-(1-hydroxycyclohexyl)[1,2]selenazolo[2,3-b]thiazolium chloride], the “1H NMR resonances in the presence of CL-containing liposomes” value was “broadened”.
